SMILES strings stand for the structures. Read-outs that look alike come from different tables or passages of the source. Bounds are passed on as bounds.

Assay type in all cases: cell-based
Assay [1] deals with MCF-7. Put plainly: MTT cell viability assay, MCF-7. To be noted: Homo sapiens, MTT, 72-hour incubation, read-out: IC50/μM MCF-7.
For assay [2], the system named is MDA-MB-231. Put plainly: MTT cell viability assay, MDA-MB-231. Particulars: Homo sapiens. A general note: Tetrazolium assays rely on reduction of a dye to a coloured formazan, in cell work by metabolically active cells.
The test system of assay [3] is MEF (C57BL/6). Description: MTT cell viability assay, MEF (C57BL/6). Particulars: Mus musculus.
[4] abbreviates: MTT, 72-hour incubation, read-out: IC50/μM MEF (C57BL/6).
[5] abbreviates: MDA-MB-231, 72 h, 72-hour incubation.
Setting [6] is: 72 h, read-out: IC50/μM MEF (C57BL/6), MTT, 72-hour incubation.

Take `CCn1c(=O)/c(=C2\Sc3ccc(C)cc3N2C)s/c1=C\c1scc[n+]1Cc1occc1C(=O)OC` [JG-370]: the IC50 in assay [1] (MCF7) came out at 0.22 ± 0.01 µM; in assay [2] (MDA-MB-231, 72-hour incubation), 0.18 ± 0.02 µM; in assay [3] (setting [4]) it was 1.2 ± 0.1 µM.
Regarding `CCn1c(=O)/c(=C2\Sc3cc(C)ccc3N2C)s/c1=C\c1scc[n+]1Cc1c(Cl)cccc1Cl` [JG-371], the IC50 came out at 0.069 ± 0.004 µM in assay [1] (MCF7); 0.07 ± 0.01 µM in assay [2] (MDA-MB-231, 72-hour incubation); 0.68 ± 0.02 µM in assay [3] (setting [4]).
With `CCn1c(=O)/c(=C2\Sc3cc(C)ccc3N2C)s/c1=C\c1scc[n+]1Cc1c(C)cccc1C` [JG-372], the IC50 in assay [1] (MCF7) was found to be 0.18 ± 0.01 µM; in assay [2] (MDA-MB-231, 72-hour incubation) it was 0.68 ± 0.16 µM; in assay [3] (setting [4]), 0.67 ± 0.01 µM.
For `CCn1c(=O)/c(=C2\Sc3cc(C)ccc3N2C)s/c1=C\c1scc[n+]1Cc1ccccc1SC(F)(F)F` [JG-373], in that order: 0.095 ± 0.005 µM, 0.22 ± 0.03 µM and 0.44 ± 0.03 µM.
On to `CCn1c(=O)/c(=C2\Sc3cc(C)ccc3N2C)s/c1=C\c1scc[n+]1Cc1ccccc1C(=O)OC` [JG-374], for which the IC50 was 0.16 ± 0.01 µM in assay [1] (MCF7); 0.15 ± 0.01 µM in assay [2] (MDA-MB-231, 72-hour incubation); 0.69 ± 0.03 µM in assay [3] (setting [4]).
`CCn1c(=O)/c(=C2\Sc3cc(C)ccc3N2C)s/c1=C\c1scc[n+]1Cc1ccccc1OC` [JG-375]: the IC50 in assay [1] (MCF7, 72 h) stood at 0.071 ± 0.006 µM; in assay [2] (setting [5]), 0.082 ± 0.01 µM; in assay [3] (setting [6]) it was 0.96 ± 0.03 µM.
`CCn1c(=O)/c(=C2\Sc3ccc(OC)cc3N2C)s/c1=C\c1scc[n+]1Cc1ccccc1` [JG-376]: the IC50 came out at 0.37 ± 0.02 µM in assay [1] (MCF7, 72 h); 0.36 ± 0.05 µM in assay [2] (setting [5]); 1 ± 0.1 µM in assay [3] (setting [4]).
For the compound `CCn1c(=O)/c(=C2\Sc3cc(OC)ccc3N2C)s/c1=C\c1scc[n+]1CCc1ccccc1C(F)(F)F` [JG-377], the IC50 in assay [1] (MCF7) was 0.12 ± 0.01 µM; in assay [2] (MDA-MB-231, 72-hour incubation) it was 0.19 ± 0.03 µM; in assay [3] (setting [4]), greater than 10 µM.
For `CCn1c(=O)/c(=C2\Sc3cc(C)ccc3N2C)s/c1=C\c1scc[n+]1CCc1ccccc1C(F)(F)F` [JG-378], the IC50 in assay [1] (MCF7) came to 0.13 ± 0.01 µM; in assay [2] (MDA-MB-231, 72-hour incubation), 0.14 ± 0.02 µM; in assay [3] (setting [4]) it was 0.87 ± 0.03 µM.
With `CCn1c(=O)/c(=C2\Sc3cc(OC)ccc3N2C)s/c1=C\c1scc[n+]1CCc1ccccc1Cl` [JG-379], the IC50 in assay [1] (MCF7) was 0.18 ± 0.01 µM; in assay [2] (MDA-MB-231, 72-hour incubation), 0.2 ± 0.03 µM; in assay [3] (setting [4]) it was 0.9 ± 0.01 µM.
With `CCn1c(=O)/c(=C2\Sc3cc(C)ccc3N2C)s/c1=C\c1scc[n+]1CCc1ccccc1Cl` [JG-380], the IC50 stood at 0.2 ± 0.02 µM in assay [1] (MCF7); 0.25 ± 0.03 µM in assay [2] (MDA-MB-231, 72-hour incubation); 0.94 ± 0.03 µM in assay [3] (setting [4]).
Consider `CCn1c(=O)/c(=C2\Sc3cc(Cl)ccc3N2C)s/c1=C\c1scc[n+]1CCc1cccc(Cl)c1` [JG-381], for which the IC50 in assay [1] (MCF7) is 0.55 ± 0.03 µM; in assay [2] (MDA-MB-231, 72-hour incubation) it was 0.62 ± 0.05 µM; in assay [3] (setting [4]), 2.3 ± 0.2 µM.
As to `CCn1c(=O)/c(=C2\Sc3cc(C)ccc3N2C)s/c1=C\c1scc[n+]1CCc1cccc(Cl)c1` [JG-382], the IC50 in assay [1] (MCF7) was 0.59 ± 0.03 µM; in assay [2] (MDA-MB-231, 72-hour incubation) it was 0.46 ± 0.06 µM; in assay [3] (setting [4]), 1.2 ± 0.1 µM.
On to `CCn1c(=O)/c(=C2\Sc3cc(Cl)ccc3N2C)s/c1=C\c1scc[n+]1CCc1cccc(C(F)(F)F)c1` [JG-383], for which the IC50 amounted to 0.78 ± 0.06 µM in assay [1] (MCF7); 0.74 ± 0.08 µM in assay [2] (MDA-MB-231, 72-hour incubation); 2.3 ± 0.2 µM in assay [3] (setting [4]).
Regarding `CCn1c(=O)/c(=C2\Sc3cc(C)ccc3N2C)s/c1=C\c1scc[n+]1CCc1cccc(C(F)(F)F)c1` [JG-384], the IC50 in assay [1] (MCF7) came to 0.62 ± 0.08 µM; in assay [2] (MDA-MB-231, 72-hour incubation), 0.68 ± 0.1 µM; in assay [3] (setting [4]), 1.1 ± 0.1 µM.
Consider `CCn1c(=O)/c(=C2\Sc3cc(Cl)ccc3N2C)s/c1=C\c1scc[n+]1CCc1ccc(Cl)cc1` [JG-385], for which the IC50 amounted to 0.69 ± 0.05 µM in assay [1] (MCF7); 0.61 ± 0.05 µM in assay [2] (MDA-MB-231, 72-hour incubation); 4.4 ± 0.3 µM in assay [3] (setting [4]).
Regarding `CCn1c(=O)/c(=C2\Sc3cc(C)ccc3N2C)s/c1=C\c1scc[n+]1CCc1ccc(Cl)cc1` [JG-386], the IC50 was 0.53 ± 0.05 µM in assay [1] (MCF7); 0.28 ± 0.03 µM in assay [2] (MDA-MB-231, 72-hour incubation); 1.7 ± 0.1 µM in assay [3] (setting [4]).
For `CCn1c(=O)/c(=C2\Sc3cc(Cl)ccc3N2C)s/c1=C\c1scc[n+]1CCc1ccc(C(F)(F)F)cc1` [JG-387], in that order: 0.78 ± 0.09 µM, 0.74 ± 0.04 µM and greater than 10 µM.
`CCn1c(=O)/c(=C2\Sc3cc(C)ccc3N2C)s/c1=C\c1scc[n+]1CCc1ccc(C(F)(F)F)cc1` [JG-388]: the IC50 came to 0.5 ± 0.04 µM in assay [1] (MCF7); 0.62 ± 0.07 µM in assay [2] (MDA-MB-231, 72-hour incubation); 1.6 ± 0.1 µM in assay [3] (setting [4]).
In the case of `CCn1c(=O)/c(=C2\Sc3cc(Cl)ccc3N2C)s/c1=C\c1scc[n+]1CCc1ccccc1OC` [JG-389], the IC50 turned out to be 0.86 ± 0.08 µM in assay [1] (MCF7); 0.27 ± 0.01 µM in assay [2] (MDA-MB-231, 72-hour incubation); 2.4 ± 0.1 µM in assay [3] (setting [4]).
As for `CCn1c(=O)/c(=C2\Sc3cc(C)ccc3N2C)s/c1=C\c1scc[n+]1CCc1ccccc1OC` [JG-390], the IC50 was found to be 0.31 ± 0.04 µM in assay [1] (MCF7); 0.12 ± 0.01 µM in assay [2] (MDA-MB-231, 72-hour incubation); 1.2 ± 0.1 µM in assay [3] (setting [4]).
Consider `CCn1c(=O)/c(=C2\Sc3cc(Cl)ccc3N2C)s/c1=C\c1scc[n+]1CCc1ccccc1C` [JG-391], for which the IC50 was found to be 0.68 ± 0.04 µM in assay [1] (MCF7); 0.26 ± 0.01 µM in assay [2] (MDA-MB-231, 72-hour incubation); 2.5 ± 0.2 µM in assay [3] (setting [4]).
Take `CCn1c(=O)/c(=C2\Sc3cc(C)ccc3N2C)s/c1=C\c1scc[n+]1CCc1ccccc1C` [JG-392]: the IC50 came out at 0.35 ± 0.03 µM in assay [1] (MCF7); 0.19 ± 0.02 µM in assay [2] (MDA-MB-231, 72-hour incubation); 1.2 ± 0.1 µM in assay [3] (setting [4]).
Take `CCn1c(=O)/c(=C2\Sc3cc(OC)ccc3N2C)s/c1=C\c1scc[n+]1CCc1cccc(C(F)(F)F)c1` [JG-393]: the IC50 came out at 0.68 ± 0.13 µM in assay [1] (MCF7); 0.21 ± 0.01 µM in assay [2] (MDA-MB-231, 72-hour incubation); 2.1 ± 0.1 µM in assay [3] (setting [4]).
For `CCn1c(=O)/c(=C2\Sc3cc(OC)ccc3N2C)s/c1=C\c1scc[n+]1CCc1cccc(Cl)c1` [JG-394], in that order: 0.56 ± 0.06 µM, 0.24 ± 0.01 µM and 2.3 ± 0.1 µM.
On to `CCn1c(=O)/c(=C2\Sc3cc(OC)ccc3N2C)s/c1=C\c1scc[n+]1CCc1ccc(C(F)(F)F)cc1` [JG-395], for which the IC50 in assay [1] (MCF7) was found to be 0.51 ± 0.06 µM; in assay [2] (MDA-MB-231, 72-hour incubation), 0.42 ± 0.03 µM; in assay [3] (setting [4]), 2.9 ± 0.1 µM.
As to `CCn1c(=O)/c(=C2\Sc3cc(OC)ccc3N2C)s/c1=C\c1scc[n+]1CCc1ccc(Cl)cc1` [JG-396], the IC50 in assay [1] (MCF7) amounted to 1.7 ± 0.3 µM; in assay [2] (MDA-MB-231, 72-hour incubation) it was 0.2 ± 0.03 µM; in assay [3] (setting [4]), 4 ± 0.2 µM.
Take `CCn1c(=O)/c(=C2\Sc3cc(OC)ccc3N2C)s/c1=C\c1scc[n+]1CCc1ccccc1OC` [JG-397]: the IC50 in assay [1] (MCF7) worked out at 0.08 ± 0.008 µM; in assay [2] (MDA-MB-231, 72-hour incubation), 0.083 ± 0.007 µM; in assay [3] (setting [4]) it was 1.3 ± 0.1 µM.
`CCn1c(=O)/c(=C2\Sc3cc(OC)ccc3N2C)s/c1=C\c1scc[n+]1CCc1ccccc1C` [JG-398]: the IC50 is 0.24 ± 0.02 µM in assay [1] (MCF7); 0.14 ± 0.01 µM in assay [2] (MDA-MB-231, 72-hour incubation); 1.1 ± 0.1 µM in assay [3] (setting [4]).
For `CCn1c(=O)/c(=C2\Sc3ccc(OC)cc3N2C)s/c1=C\c1scc[n+]1Cc1ccccc1SC(F)(F)F` [JG-399], the IC50 in assay [1] (MCF7) was 0.2 ± 0.01 µM; in assay [2] (MDA-MB-231, 72-hour incubation) it was 0.11 ± 0.01 µM; in assay [3] (setting [4]), 3.1 ± 0.2 µM.
With `CCn1c(=O)/c(=C2\Sc3ccc(OC)cc3N2C)s/c1=C\c1scc[n+]1Cc1ccccc1OC(F)(F)F` [JG-400], the IC50 in assay [1] (MCF7, 72 h) is 0.16 ± 0.02 µM; in assay [2] (setting [5]), 0.16 ± 0.01 µM; in assay [3] (setting [6]) it was 2.2 ± 0.1 µM.
Regarding `CCn1c(=O)/c(=C2\Sc3ccc(OC)cc3N2C)s/c1=C\c1scc[n+]1Cc1ccccc1C(F)(F)F` [JG-401], the IC50 in assay [1] (MCF7) came to 0.45 ± 0.04 µM; in assay [2] (MDA-MB-231, 72-hour incubation), 0.11 ± 0.01 µM; in assay [3] (setting [4]), 0.27 ± 0.03 µM.
`CCn1c(=O)/c(=C2\Sc3ccc(OC)cc3N2C)s/c1=C\c1scc[n+]1Cc1ccsc1C(=O)OC` [JG-402]: the IC50 in assay [1] (MCF7) was determined as 0.45 ± 0.04 µM; in assay [2] (MDA-MB-231, 72-hour incubation) it was 0.23 ± 0.01 µM; in assay [3] (setting [4]), 0.82 ± 0.06 µM.

The values above are taken from patent US10221171B2, “Oxathiazole thiazolium Hsp 70 inhibitors” (THE REGENTS OF THE UNIVERSITY OF CALIFORNIA, priority 2015, dated 2019).
